Data taken from US20230102554A1 (GB002, INC., priority 2019, published 2023).

Columns and labels:
[1] = molecular target: T1, Human PDGFRα, cytoplasmic domain (GST-PDGFRα) (Homo sapiens, UniProt P16234); assay: Human PDGFRα biochemical inhibition assay (off-chip Mobility Shift Assay)
T1 construct: made in house

[2] = molecular target: T2, Human PDGFRβ, cytoplasmic domain (GST-PDGFRβ) (Homo sapiens, UniProt P09619); assay: Human PDGFRβ biochemical inhibition assay (off-chip Mobility Shift Assay)
T2 construct: made in house
In short: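 GST-tagged cytoplasmic domain (aa 557-1106) from baculovirus was incubated 1 h at room temperature with compound, CSKtide, ATP at Km and Mg²⁺ in HEPES buffer, pH 7.5. Phosphorylated and unphosphorylated peptide were separated by off-chip mobility shift, and the product ratio P/(P+S) gave percent inhibition.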

T2 sequence (P09619 with tags, fused parts or gaps): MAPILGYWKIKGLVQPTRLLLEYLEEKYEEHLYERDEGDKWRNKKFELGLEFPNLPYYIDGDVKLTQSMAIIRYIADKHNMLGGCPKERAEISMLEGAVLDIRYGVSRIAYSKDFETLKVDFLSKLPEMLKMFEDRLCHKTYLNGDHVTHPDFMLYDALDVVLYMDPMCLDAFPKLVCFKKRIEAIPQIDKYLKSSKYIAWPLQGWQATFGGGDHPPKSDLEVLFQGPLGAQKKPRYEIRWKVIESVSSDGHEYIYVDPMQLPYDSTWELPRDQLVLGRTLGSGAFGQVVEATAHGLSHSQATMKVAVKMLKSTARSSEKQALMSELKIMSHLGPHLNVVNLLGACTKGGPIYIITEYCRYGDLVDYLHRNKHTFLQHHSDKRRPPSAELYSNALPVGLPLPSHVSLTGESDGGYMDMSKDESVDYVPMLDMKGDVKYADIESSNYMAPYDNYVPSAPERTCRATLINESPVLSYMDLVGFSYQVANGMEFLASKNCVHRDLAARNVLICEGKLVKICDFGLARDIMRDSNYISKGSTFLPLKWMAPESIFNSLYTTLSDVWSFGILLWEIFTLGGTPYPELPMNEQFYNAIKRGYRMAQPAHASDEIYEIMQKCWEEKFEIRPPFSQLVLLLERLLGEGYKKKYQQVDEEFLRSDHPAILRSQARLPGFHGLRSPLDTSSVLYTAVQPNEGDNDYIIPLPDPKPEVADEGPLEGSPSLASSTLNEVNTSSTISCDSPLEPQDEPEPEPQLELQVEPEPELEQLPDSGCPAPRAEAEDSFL
T1 sequence (P16234 550-1089 T674I): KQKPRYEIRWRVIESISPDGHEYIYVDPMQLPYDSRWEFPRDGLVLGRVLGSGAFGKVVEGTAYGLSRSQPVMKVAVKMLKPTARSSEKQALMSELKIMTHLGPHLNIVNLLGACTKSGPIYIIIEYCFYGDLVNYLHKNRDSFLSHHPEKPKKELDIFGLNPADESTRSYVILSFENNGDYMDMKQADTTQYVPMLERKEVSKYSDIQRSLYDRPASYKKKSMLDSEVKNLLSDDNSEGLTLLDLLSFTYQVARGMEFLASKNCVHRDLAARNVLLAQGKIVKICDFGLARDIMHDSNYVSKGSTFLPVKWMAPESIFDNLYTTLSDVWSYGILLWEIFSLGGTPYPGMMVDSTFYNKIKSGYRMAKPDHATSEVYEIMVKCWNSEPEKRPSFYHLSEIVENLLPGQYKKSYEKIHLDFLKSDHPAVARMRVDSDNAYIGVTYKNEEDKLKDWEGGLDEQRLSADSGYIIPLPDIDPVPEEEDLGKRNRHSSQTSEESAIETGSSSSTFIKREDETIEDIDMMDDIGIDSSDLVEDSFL

SMILES	IC50 [1]	IC50 [2]
C[C@H](Nc1cnc2cnn(C)c2n1)c1cccc(NC(=O)N2CCc3ccccc3C2)c1 [Compound 55, (S)-N-(3-(1-((1-methyl-1H-pyrazolo[3,4-b]pyrazin-6-yl)amino)ethyl)phenyl)-3,4-dihydroisoquinoline-2(1H)-carboxamide]	< 300 nM	< 300 nM
Cc1ncc(C(F)(F)F)cc1C(=O)Nc1cccc([C@H](C)Nc2cnc3cnn(C)c3n2)c1 [Compound 126, (S)-2-methyl-N-(3-(1-((1-methyl-1H-pyrazolo[3,4-b]pyrazin-6-yl)amino)ethyl)phenyl)-5-(trifluoromethyl) nicotinamide]	300 to 1000 nM	≥ 1000 nM
Cc1cc(C(=O)Nc2cccc([C@H](C)Nc3cnc4cnn(C)c4n3)c2)cnc1F [Compound 192, (S)-6-fluoro-5-methyl-N-(3-(1-((1-methyl-1H-pyrazolo[3,4-b]pyrazin-6-yl)amino)ethyl)phenyl)nicotinamide]	< 300 nM	< 300 nM
Cc1cc(C(=O)Nc2cccc([C@H](C)Nc3cnc4cnn(C)c4n3)c2)cnc1Cl [Compound 200, (S)-6-chloro-5-methyl-N-(3-(1-((1-methyl-1H-pyrazolo[3,4-b]pyrazin-6-yl)amino)ethyl)phenyl)nicotinamide]	< 300 nM	< 300 nM
Cc1cncc(C(=O)Nc2cccc([C@H](C)Nc3cnc4ncccc4n3)c2)c1 [Compound 26, (S)-5-methyl-N-(3-(1-(pyrido[2,3-b]pyrazin-2-ylamino)ethyl)phenyl) nicotinamide]	300 to 1000 nM	≥ 1000 nM

The next lines start with the values.

IC50 [1]	IC50 [2]	SMILES
300 to 1000 nM	< 300 nM	C[C@H](Nc1cnc2[nH]cc(-c3cnn(C)c3)c2n1)c1cccc(NC(=O)c2ccc(C(F)(F)F)nc2)c1 [Compound 580, (S)-N-(3-(1-((7-(1-methyl-1H-pyrazol-4-yl)-5H-pyrrolo[2,3-b]pyrazin-2-yl)amino)ethyl)phenyl)-6-(trifluoromethyl) nicotinamide]
< 300 nM	≥ 1000 nM	CCn1cc2ncc(N[C@@H](C)c3cc(NC(=O)Cc4cnc(C5CC5)c(F)c4)ccc3F)nc2n1 [Compound 691, (S)-2-(6-cyclopropyl-5-fluoropyridin-3-yl)-N-(3-(1-((2-ethyl-2H-pyrazolo[3,4-b]pyrazin-6-yl)amino)ethyl)-4-fluorophenyl)acetamide]
< 300 nM	< 300 nM	CCn1cc2ncc(N[C@@H](C)c3cc(NC(=O)c4cnc(N5CCCC5)c(C)c4)ccc3F)nc2n1 [Compound 336, (S)-N-(3-(1-((2-ethyl-2H-pyrazolo[3,4-b]pyrazin-6-yl)amino)ethyl)-4-fluorophenyl)-5-methyl-6-(pyrrolidin-1-yl) nicotinamide]
< 300 nM	< 300 nM	C[C@H](Nc1cnc2[nH]ccc2n1)c1cccc(NC(=O)c2ccc(C3CC3)nc2)c1 [Compound 594, (S)-N-(3-(1-((5H-pyrrolo[2,3-b]pyrazin-2-yl)amino)ethyl)phenyl)-6-cyclopropylnicotinamide]
< 300 nM	< 300 nM	CCn1cc2ncc(N[C@@H](C)c3cc(NC(=O)Cc4ccc(F)cc4)ccc3C)nc2n1 [Compound 701, (S)-N-(3-(1-((2-ethyl-2H-pyrazolo[3,4-b]pyrazin-6-yl)amino)ethyl)-4-methylphenyl)-2-(4-fluorophenyl)acetamide]
< 300 nM	< 300 nM	CCn1cc2ncc(N[C@@H](C)c3cccc(NC(=O)c4ccc(CN5CCN(C)CC5)c(Cl)c4)c3)nc2n1 [Compound 417, (S)-3-chloro-N-(3-(1-((2-ethyl-2H-pyrazolo[3,4-b]pyrazin-6-yl)amino)ethyl)phenyl)-4-((4-methylpiperazin-1-yl)methyl) benzamide]
300 to 1000 nM	≥ 1000 nM	CCn1cc2ncc(N[C@@H](C)c3cc(NC(=O)Cc4ccc(C(C)(C)F)cn4)ccc3C)nc2n1 [Compound 690, (S)-N-(3-(1-((2-ethyl-2H-pyrazolo[3,4-b]pyrazin-6-yl)amino)ethyl)-4-methylphenyl)-2-(5-(2-fluoropropan-2-yl)pyridin-2-yl)acetamide]
